The source of these data is publication PMC7906907, “Targeting STAT3 by a small molecule suppresses pancreatic cancer progression” (Oncogene, 2021).

One test has as its system PANC-1 cells. Put plainly: PANC-1 shNC / shSTAT3 xenograft with drug withdrawal. The test is classed as in vivo, Mice. The text has this:
To provide further evidence that STAT3 is the direct target of N4, we constructed two STAT3 stable knockdown cell lines by the short hairpin RNA (shRNA) (Supplementary Fig. S10A), and the sequence of shRNA was list in Supplementary Table S3. […] At the meantime, the effect of drug withdrawal on tumor volume and weight was also examined. After 20 days of treatment, all the drug or vehicle were removed and the tumor was allowed to grow for another 12 days. […] Thus, N4 kept the suppression on tumor growth compared to vehicle group during the drug withdrawal period.
Supplementary Figure 10. STAT3 knockdown cells are resistant to N4 in vivo. (A) PANC-1 cells were transfected with shRNA that targeted STAT3 or negative control, and the knockdown efficiency was examined by western blot. (B) Mice bearing the PANC-1 cells within STAT3 stable knockdown (shSTAT3-1#) or negative control (shNC), and administration N4 or vehicle (control) every day by i.p. After 20 days treatment, the N4 and vehicle were removed for another 12 days. Then the mice were sacrificed and the tumor was removed and photographed (n=5 per group). (C) The tumor volume was measured every 3-4 days and the volume was calculated by the formula: length × width2 ×0.52, data are shown as mean ± SD, ****P < 0.0001 and n.s., not significant by one-way ANOVA followed by multiple-comparison tests. (D) After […]

The next test has as its system Pancreatic cancer cells. Put plainly: Trans-well migration. The test is classed as cell-based. The method, then:
independent assays; *P < 0.05, **P < 0.01, ***P < 0.001, ****p < 0.0001 by one-way ANOVA followed by multiple comparisons. (C) Pancreatic cancer cells were seeded in the top chamber of Trans-well inserts and treated with N4 the following day. The lower chamber was fixed, stained, and photographed. Experiments were carried out in triplicate with identical results obtained. Data shown as mean ± SD; **P < 0.01, ****p < 0.0001 by Student’s t-tests. Scale bar, 100 μm.

The target in a further test is T1, STAT3-NF-κB complex (Homo sapiens, UniProt P40763).
T1 construct: endogenous in cells; host or cells: PANC-1
Put plainly: Co-immunoprecipitation, STAT3-NF-κB interaction. It is filed as cell-based. Conditions: PANC-1 cells, 2 μM, 24 h. The text has this:
Fig. 3 N4 interacts with the STAT3-SH2 domain and interferes with the STAT3-EGFR and STAT3-NF-κB interactions. […] C–E The binding between N4 and STAT3 was examined in (C) SPR and (D) MST experiments. His-STAT3^127-722 protein was purified and used to examine the affinity between STAT3 and N4. (E) The binding between N4 and STAT3^SH2 was confirmed in MST assays. STAT3-SH2 protein was purified and labeled. N4 was serially diluted and mixed with equal volumes of labeled STAT3^SH2 protein. The MST signal was measured, and the data were analyzed by MO analysis software. F, G The FLAG-tag and HA-tag STAT3 expression plasmid was transfected into 293 T cells, followed by the addition of the indicated concentrations of N4. After 24 h, cells were lysed, and immunoprecipitation experiments were performed as described in Materials and Methods. H N4 represses STAT3 dimerization in pancreatic cancer cells. I After a 24 h treatment with 2 μM N4, pancreatic cancer cells were stimulated with IL-6 for 30 min. Cell lysates were immunoprecipitated with STAT3 overnight. The precipitates were washed, suspended in non-reducing sample buffer, and boiled for 10 min. The indicated antibodies were used for western blot assays. […]
Co-IP was performed as previously described. […] After overnight incubation, the precipitates were washed and analyzed using western blotting.

A further test concerns Pan02 cells. The experiment in a line: EMT markers by immunofluorescence and western blot. It is filed as cell-based. As to conditions: IF and WB, 24 h. As to the method:
Fig. 8 N4 reverses EMT phenotype and shapes the microenvironment of PDAC. A IF staining was performed to detected the level of E-cadherin (red) and vimentin (green) after PAN02 treatment with the indicated concentrations of N4 for 24 h. DAPI (blue) was used to stain Nuclei. Scale bar, 20 μm. B Western blot assays were used to examine the expression of E-cadherin, N-cadherin and vimentin after PAN02 treatment with N4 for 24 h. C IHC of vimentin, F4/80 and α-SMA in tumor tissue from orthotopic models. Data represents the mean ± SD; *P < 0.05, **P < 0.01, ***P < 0.001, ****P < 0.0001, n.s. not significant by one-way ANOVA followed by multiple-comparison tests. D Quantification of vimentin, F4/80 and α-SMA in pancreatic tumors from PDAC. Scale bar, 50 μm.
Western blotting was performed as previously described. Briefly, cells were treated with indicated compounds and then lysed by boiling. […]
Immunofluorescence staining was performed as previously described. […] Images were recorded by confocal microscopy (Leica).

T1 sequence (P40763 2-770 limits assumed, one chain of several): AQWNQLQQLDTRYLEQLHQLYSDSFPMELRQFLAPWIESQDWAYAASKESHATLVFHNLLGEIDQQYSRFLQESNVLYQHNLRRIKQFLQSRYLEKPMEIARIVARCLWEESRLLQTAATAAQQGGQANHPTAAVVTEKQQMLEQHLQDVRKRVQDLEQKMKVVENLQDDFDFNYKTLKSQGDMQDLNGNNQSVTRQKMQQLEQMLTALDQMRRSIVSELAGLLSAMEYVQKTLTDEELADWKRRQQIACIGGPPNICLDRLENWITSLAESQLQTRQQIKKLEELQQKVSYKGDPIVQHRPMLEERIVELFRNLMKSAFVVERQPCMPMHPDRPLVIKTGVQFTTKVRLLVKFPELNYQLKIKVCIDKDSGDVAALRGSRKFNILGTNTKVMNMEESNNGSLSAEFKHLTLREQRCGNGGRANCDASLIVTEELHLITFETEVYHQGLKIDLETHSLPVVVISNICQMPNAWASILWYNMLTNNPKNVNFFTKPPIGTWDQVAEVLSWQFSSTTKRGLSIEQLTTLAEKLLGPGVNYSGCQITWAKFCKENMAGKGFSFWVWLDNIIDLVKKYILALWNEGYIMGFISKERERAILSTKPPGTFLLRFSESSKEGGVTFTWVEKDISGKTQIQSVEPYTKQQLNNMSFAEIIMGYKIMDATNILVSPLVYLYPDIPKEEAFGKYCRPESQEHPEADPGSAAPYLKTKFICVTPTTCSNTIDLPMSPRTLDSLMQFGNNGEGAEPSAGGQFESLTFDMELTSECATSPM

Turning to `COc1cc2c(cc1C(=O)Nc1cccc3cccnc13)CCC1C(C)(C)C(=O)C(C#N)=C[C@]21C` (some centres unmarked) [N4], the “sensitivity of STAT3 stable knockdown cells to treatment” value in the test with PANC-1 cells (compared with control cells) is recorded as “not sensitive”. Besides, the “increase in tumor volume during the drug withdrawal period” value in the test with PANC-1 cells (shNC-N4 group, 20 days treatment i.p., then 12 days withdrawal) came out at 249.49 mm^3. The pancreatic cancer migration entry in the test on Pancreatic cancer cells was “efficiently blocked”. Besides, the “interaction between STAT3 and NF-κB” value at STAT3-NF-κB complex is “blocked”. The “epithelial and mesenchymal markers” value with Pan02 cells was “upregulation of E-cadherin, and downregulation of N-cadherin and vimentin”.
